This is an account of results in ChEMBL document CHEMBL1147603, “Fluoropyrrolidine amides as dipeptidyl peptidase IV inhibitors” (Bioorg Med Chem Lett, 2004).

By Cmax is commonly meant the highest concentration seen after dosing. A word on the half-life: it is how long it takes for the measured level to halve. A higher half-life goes with slow decline.

Series [1] in a line: (§1) Volume of distribution at steady state was determined after 1 mg/kg (i.v.) / 2 mg/kg (p.o.) of compound administration. The conditions noted are these: rat, in vivo, iv, read-out: Vdss. The class given is ADME, organism-based.
Series [2] is described as follows: (§2) Maximum plasma concentration reached by compound was determined after 2 mg/kg (p.o.) administration. The conditions noted are these: rat, po. Also noted: dose 2 mg/kg, route oral. Format: ADME, organism-based.
Series [3] in a line: (§3) Half-life period was determined after 1 mg/kg (i.v.) / 2 mg/kg (p.o.) of compound administration. The conditions noted are these: dog, in vivo. The class given is ADME, organism-based, Canis lupus familiaris.
The nature of series [4]: as §1. The following applies: dog, in vivo, iv, read-out: Vdss. The class given is ADME, organism-based, Canis lupus familiaris.
Series [5] is described as follows: (§4) Plasma clearance was determined after 1 mg/kg (i.v.) / 2 mg/kg (p.o.) of compound administration. The class given is ADME, organism-based, Canis lupus familiaris. The following applies: dog, iv, read-out: Clp.
Series [6] in a line: as §3. Format: ADME, organism-based. The following applies: rat, in vivo.
A short description of series [7]: as §2. Format: ADME, organism-based, Canis lupus familiaris. Set-up: dose 2 mg/kg, route oral. The conditions noted are these: dog, po.
Series [8] in a line: as §4. Format: ADME, organism-based. The following applies: rat, iv, read-out: Clp.

Regarding `N[C@H](C(=O)N1CC[C@H](F)C1)[C@H]1CC[C@H](NS(=O)(=O)c2ccc(F)cc2F)CC1`, the Vd in series [1] turned out to be 2.5 L/kg; in series [4], 4.4 L/kg. In addition, the peak concentration (Cmax) was found to be 400 nM in series [2] and 1000 nM in series [7]. Moreover, the half-life is 5.9 h in series [3] and 1.6 h in series [6]. For the same compound, the clearance in series [5] stood at 9.1 mL/min/kg; in series [8], 24 mL/min/kg.
